From patent US20190030166A1, “PERCUTANEOUSLY ABSORBABLE COMPOSITION CONTROLLED IN RELEASE OF WATER-SOLUBLE EFFECTIVE INGREDIENT” (NISSAN CHEMICAL CORPORATION, priority 2016, published 2019)
Peptide text beside a SMILES is read from it.

What was measured:
[1] = Method: Solubilization of the complex with citronellal or citral in ethanol was examined while keeping the amino acid as crystal. The amino acids are different in the crystalline state in the commercial products depending on the kind thereof, so that there were fear that the results might cause fluctuation. Thus, an operation for enlarging the surface in contact with the liquid was added by making the difference due to crystals small as well as making the surface area as much as possible. Specifically, the crystals of the amino acids were ground in a mortar and then sieved through a 100 μm sieve to provide powders, which were used in the present test.
The amount and heating time of citronellal or citral necessary for solubilizing the obtained complex in ethanol, and the dispersed state of the obtained complex in ethanol was confirmed.

[2] = Oil solubilization of Peptide A or B using citral; format: physicochemical; conditions: 2 mg peptide, 0.1 mL citral, 0.1 mL ethanol; for Solution state in IPM: 80° C. (Peptide A 3 hours, Peptide B 4 hours), 50 μL ethanol solution + 150 μL IPM
Method: The oil solubilization experiment of Peptide A is as follows.
Preparation conditions under heating at 80° C. are as follows.
Preparation conditions under stirring at room temperature are as follows. To 1 mL of a screw-top sample tube were added 2 mg of Peptide B, 0.1 mL of citral and 0.1 mL of ethanol, and the mixture was stirred at room temperature for 22 hours to obtain an ethanol solution.

| Structure (SMILES) | Amount of citral necessary for solubilizing in ethanol [1] | Heating time necessary for solubilizing in ethanol [1] | Amount of citronellal necessary for solubilizing in ethanol [1] | Solution state in IPM [2] | State of ethanol solution ([2]; stirred at room temperature 22 hours) |
| --- | --- | --- | --- | --- | --- |
| NCCCC[C@H](N)C(=O)O [Lysine, L-(+) lysine] | – | 0.5 h | 700 mg | – | – |
| CSCC[C@H](NC(=O)[C@H](CC(C)C)NC(=O)[C@@H](NC(=O)[C@H](Cc1ccccc1)NC(=O)CNC(=O)[C@@H](NC(=O)[C@H](CC(C)C)NC(=O)[C@H](CCCCN)NC(=O)[C@H](C)NC(=O)[C@H](Cc1ccccc1)NC(=O)[C@@H](N)CCC(N)=O)[C@@H](C)O)[C@@H](C)O)C(=O)NCC(=O)O [Peptide A] (H-QFAKLTGFTLMG-OH; N-terminus and C-terminus assumed) | – | – | – | pale yellow peptide IPM solution | – |
| CSCC[C@H](NC(=O)[C@@H](N)CO)C(=O)N[C@@H](CCCCN)C(=O)N[C@H](C(=O)N[C@H](C(=O)N[C@H](C(=O)N[C@@H](C)C(=O)N[C@@H](Cc1ccccc1)C(=O)N[C@@H](CC(N)=O)C(=O)N[C@@H](CCC(N)=O)C(=O)N[C@@H](Cc1ccccc1)C(=O)NCC(=O)N1CCC[C@H]1C(=O)O)C(C)C)[C@@H](C)O)C(C)C [Peptide B] (H-SMKVTVAFNQFGP-OH; N-terminus and C-terminus assumed) | – | – | – | pale yellow peptide IPM solution | yellow gel-like substance |
| N[C@@H](Cc1c[nH]c2ccccc12)C(=O)O [Tryptophan, L-tryptophan] | – | 24 h | 700 mg | – | – |
| CC(C)[C@H](N)C(=O)O [Valine, L-valine] | 700 mg | 3 h | – | – | – |

Further lines, results first:

| Amount of citral necessary for solubilizing in ethanol [1] | Heating time necessary for solubilizing in ethanol [1] | Amount of citronellal necessary for solubilizing in ethanol [1] | Solution state in IPM [2] | State of ethanol solution ([2]; stirred at room temperature 22 hours) | Structure (SMILES) |
| --- | --- | --- | --- | --- | --- |
| 700 mg | 24 h | – | – | – | NC(=O)CC[C@H](N)C(=O)O [Glutamine, L(+)-glutamine] |
| – | 17.5 h | 700 mg | – | – | N[C@@H](Cc1c[nH]cn1)C(=O)O [Histidine, L-histidine] |
| 700 mg | 0.25 h | – | – | – | CC[C@H](C)[C@H](N)C(=O)O [Isoleucine, L(+)-isoleucine] |
| 700 mg | 5 h | – | – | – | C[C@H](N)C(=O)O [L-Alanine, L-alanine] |
| – | 0.33 h | 700 mg | – | – | N[C@@H](CS)C(=O)O [L-cysteine] |
